Source: patent publication US6552080B1, “Fungicidal compounds having a fluorovinyl-or fluoropropenyl-oxyphenyloxime moiety and process for the preparation thereof” (Korea Research Institute of Chemical Technology, priority 1999, dated 2003)

Test system: Rhizoctonia solani AG-1
Assay: Fungicidal activity against Rice Sheath Blight (RSB) disease
Settings: 2 ppm

Row | SMILES | Fungicidal Activities RSB (C.V.) [%]
1 | CNC(=O)C(=NOC)c1ccccc1CON=C(C)c1cccc(OC(F)=C(c2cccc(C(F)(F)F)c2)C(F)(F)F)c1 [Compound 200] | 15
2 | CON=C(C(=O)OC)c1ccccc1CON=C(C)c1cccc(OC(F)=C(c2ccc(C)c(C)c2)C(F)(F)F)c1 [Compound 176] | 20
3 | CNC(=O)C(=NOC)c1ccccc1CON=C(C)c1cccc(OC(F)=C(c2ccc(F)cc2)C(F)(F)F)c1 [Compound 199] | 35

Same assay, conditions: 50 ppm

Row | SMILES | Fungicidal Activities RSB (C.V.) [%]
4 | CNC(=O)C(=NOC)c1ccccc1CON=C(C)c1cccc(OC(F)=C(c2cccc(C(F)(F)F)c2)C(F)(F)F)c1 [Compound 200] | 85
5 | CON=C(C(=O)OC)c1ccccc1CON=C(C)c1cccc(OC(F)=C(c2ccc(C)c(C)c2)C(F)(F)F)c1 [Compound 176] | 60
6 | CNC(=O)C(=NOC)c1ccccc1CON=C(C)c1cccc(OC(F)=C(c2ccc(F)cc2)C(F)(F)F)c1 [Compound 199] | 100

Same assay, conditions: Rice Sheath Blight; concentration 2 ppm

Row | SMILES | RSB (Fungicidal Activities, C.V.) [%]
7 | CNC(=O)C(=NOC)c1ccccc1CON=C(C)c1cccc(OC(F)=Cc2cccc(OC)c2)c1 [Compound 80] | 45

Same assay, conditions: Rice Sheath Blight; concentration 50 ppm

Row | SMILES | RSB (Fungicidal Activities, C.V.) [%]
8 | CNC(=O)C(=NOC)c1ccccc1CON=C(C)c1cccc(OC(F)=Cc2cccc(OC)c2)c1 [Compound 80] | 100

Test system: Puccinia recondita
Assay: Fungicidal activity against Wheat Leaf Rust (WLR) disease
Format: in vivo
Settings: 2 ppm

Row | SMILES | Fungicidal Activities WLR (C.V.) [%]
9 | CNC(=O)C(=NOC)c1ccccc1CON=C(C)c1cccc(OC(F)=C(c2cccc(C(F)(F)F)c2)C(F)(F)F)c1 [Compound 200] | 93
10 | CON=C(C(=O)OC)c1ccccc1CON=C(C)c1cccc(OC(F)=C(c2ccc(C)c(C)c2)C(F)(F)F)c1 [Compound 176] | 60
11 | CNC(=O)C(=NOC)c1ccccc1CON=C(C)c1cccc(OC(F)=C(c2ccc(F)cc2)C(F)(F)F)c1 [Compound 199] | 99

Same assay, conditions: 50 ppm

Row | SMILES | Fungicidal Activities WLR (C.V.) [%]
12 | CNC(=O)C(=NOC)c1ccccc1CON=C(C)c1cccc(OC(F)=C(c2cccc(C(F)(F)F)c2)C(F)(F)F)c1 [Compound 200] | 100
13 | CON=C(C(=O)OC)c1ccccc1CON=C(C)c1cccc(OC(F)=C(c2ccc(C)c(C)c2)C(F)(F)F)c1 [Compound 176] | 100
14 | CNC(=O)C(=NOC)c1ccccc1CON=C(C)c1cccc(OC(F)=C(c2ccc(F)cc2)C(F)(F)F)c1 [Compound 199] | 100

Same assay, conditions: Wheat Leaf Rust; concentration 2 ppm

Row | SMILES | WLR (Fungicidal Activities, C.V.) [%]
15 | CNC(=O)C(=NOC)c1ccccc1CON=C(C)c1cccc(OC(F)=Cc2cccc(OC)c2)c1 [Compound 80] | 96

Same assay, conditions: Wheat Leaf Rust; concentration 50 ppm

Row | SMILES | WLR (Fungicidal Activities, C.V.) [%]
16 | CNC(=O)C(=NOC)c1ccccc1CON=C(C)c1cccc(OC(F)=Cc2cccc(OC)c2)c1 [Compound 80] | 100

Test system: Phytophthora infestans
Assay: not given
Format: in vivo
Settings: 2 ppm

Row | SMILES | Fungicidal Activities TLB (C.V.) [%]
17 | CNC(=O)C(=NOC)c1ccccc1CON=C(C)c1cccc(OC(F)=C(c2cccc(C(F)(F)F)c2)C(F)(F)F)c1 [Compound 200] | 12
18 | CNC(=O)C(=NOC)c1ccccc1CON=C(C)c1cccc(OC(F)=C(c2ccc(F)cc2)C(F)(F)F)c1 [Compound 199] | 12

Same assay, conditions: 50 ppm

Row | SMILES | Fungicidal Activities TLB (C.V.) [%]
19 | CNC(=O)C(=NOC)c1ccccc1CON=C(C)c1cccc(OC(F)=C(c2cccc(C(F)(F)F)c2)C(F)(F)F)c1 [Compound 200] | 50
20 | CON=C(C(=O)OC)c1ccccc1CON=C(C)c1cccc(OC(F)=C(c2ccc(C)c(C)c2)C(F)(F)F)c1 [Compound 176] | 70
21 | CNC(=O)C(=NOC)c1ccccc1CON=C(C)c1cccc(OC(F)=C(c2ccc(F)cc2)C(F)(F)F)c1 [Compound 199] | 60

Same assay, conditions: Tomato Late Blight; concentration 2 ppm

Row | SMILES | TLB (Fungicidal Activities, C.V.) [%]
22 | CNC(=O)C(=NOC)c1ccccc1CON=C(C)c1cccc(OC(F)=Cc2cccc(OC)c2)c1 [Compound 80] | 12

Same assay, conditions: Tomato Late Blight; concentration 50 ppm

Row | SMILES | TLB (Fungicidal Activities, C.V.) [%]
23 | CNC(=O)C(=NOC)c1ccccc1CON=C(C)c1cccc(OC(F)=Cc2cccc(OC)c2)c1 [Compound 80] | 72

Test system: Botrytis cinerae
Assay: Fungicidal activity against Cucumber Gray Mold Rot (CGM) disease
Format: in vivo
Settings: 50 ppm
Protocol: Botrytis cinerae, which was isolated from cucumber infected thereby, was inoculated on a PDA agar medium and cultured under a 12L/12D cycle at 25° C. for 15 days to form spore. The spores were scraped, filtered through a gauze and then suspended in potato dextrose liquid medium at a concentration of 1×10^6 spore/ml. The spore suspension was sprayed on a cucumber plant having one leaf. The cucumber plant was held in a humidified room at 20° C. for 3 days. L.A. on a leaf was measured to calculate an C.V.

Row | SMILES | Fungicidal Activities CGM (C.V.) [%]
24 | CNC(=O)C(=NOC)c1ccccc1CON=C(C)c1cccc(OC(F)=C(c2cccc(C(F)(F)F)c2)C(F)(F)F)c1 [Compound 200] | 81
25 | CON=C(C(=O)OC)c1ccccc1CON=C(C)c1cccc(OC(F)=C(c2ccc(C)c(C)c2)C(F)(F)F)c1 [Compound 176] | 12
26 | CNC(=O)C(=NOC)c1ccccc1CON=C(C)c1cccc(OC(F)=C(c2ccc(F)cc2)C(F)(F)F)c1 [Compound 199] | 80

Same assay, conditions: Cucumber Gray Mold Rot; concentration 50 ppm

Row | SMILES | CGM (Fungicidal Activities, C.V.) [%]
27 | CNC(=O)C(=NOC)c1ccccc1CON=C(C)c1cccc(OC(F)=Cc2cccc(OC)c2)c1 [Compound 80] | 77

Test system: Erysiphae graminis
Assay: Fungicidal activity against Barley Powdery Mildew (BPM) disease
Format: in vivo
Settings: 2 ppm

Row | SMILES | Fungicidal Activities BPM (C.V.) [%]
28 | CNC(=O)C(=NOC)c1ccccc1CON=C(C)c1cccc(OC(F)=C(c2cccc(C(F)(F)F)c2)C(F)(F)F)c1 [Compound 200] | 99
29 | CON=C(C(=O)OC)c1ccccc1CON=C(C)c1cccc(OC(F)=C(c2ccc(C)c(C)c2)C(F)(F)F)c1 [Compound 176] | 80
30 | CNC(=O)C(=NOC)c1ccccc1CON=C(C)c1cccc(OC(F)=C(c2ccc(F)cc2)C(F)(F)F)c1 [Compound 199] | 100

Same assay, conditions: 50 ppm

Row | SMILES | Fungicidal Activities BPM (C.V.) [%]
31 | CNC(=O)C(=NOC)c1ccccc1CON=C(C)c1cccc(OC(F)=C(c2cccc(C(F)(F)F)c2)C(F)(F)F)c1 [Compound 200] | 100
32 | CON=C(C(=O)OC)c1ccccc1CON=C(C)c1cccc(OC(F)=C(c2ccc(C)c(C)c2)C(F)(F)F)c1 [Compound 176] | 100
33 | CNC(=O)C(=NOC)c1ccccc1CON=C(C)c1cccc(OC(F)=C(c2ccc(F)cc2)C(F)(F)F)c1 [Compound 199] | 100

Same assay, conditions: Barley Powdery Mildew; concentration 2 ppm

Row | SMILES | BPM (Fungicidal Activities, C.V.) [%]
34 | CNC(=O)C(=NOC)c1ccccc1CON=C(C)c1cccc(OC(F)=Cc2cccc(OC)c2)c1 [Compound 80] | 100

Same assay, conditions: Barley Powdery Mildew; concentration 50 ppm

Row | SMILES | BPM (Fungicidal Activities, C.V.) [%]
35 | CNC(=O)C(=NOC)c1ccccc1CON=C(C)c1cccc(OC(F)=Cc2cccc(OC)c2)c1 [Compound 80] | 100

Test system: Pyricularia oryzae Carvara KA301
Assay: not given
Format: in vivo
Settings: 2 ppm

Row | SMILES | Fungicidal Activities RCV (C.V.) [%]
36 | CNC(=O)C(=NOC)c1ccccc1CON=C(C)c1cccc(OC(F)=C(c2cccc(C(F)(F)F)c2)C(F)(F)F)c1 [Compound 200] | 95
37 | CON=C(C(=O)OC)c1ccccc1CON=C(C)c1cccc(OC(F)=C(c2ccc(C)c(C)c2)C(F)(F)F)c1 [Compound 176] | 83
38 | CNC(=O)C(=NOC)c1ccccc1CON=C(C)c1cccc(OC(F)=C(c2ccc(F)cc2)C(F)(F)F)c1 [Compound 199] | 100

Same assay, conditions: 50 ppm

Row | SMILES | Fungicidal Activities RCV (C.V.) [%]
39 | CNC(=O)C(=NOC)c1ccccc1CON=C(C)c1cccc(OC(F)=C(c2cccc(C(F)(F)F)c2)C(F)(F)F)c1 [Compound 200] | 96
40 | CON=C(C(=O)OC)c1ccccc1CON=C(C)c1cccc(OC(F)=C(c2ccc(C)c(C)c2)C(F)(F)F)c1 [Compound 176] | 86
41 | CNC(=O)C(=NOC)c1ccccc1CON=C(C)c1cccc(OC(F)=C(c2ccc(F)cc2)C(F)(F)F)c1 [Compound 199] | 100

Same assay, conditions: Rice Blast; concentration 2 ppm

Row | SMILES | RCV (Fungicidal Activities, C.V.) [%]
42 | CNC(=O)C(=NOC)c1ccccc1CON=C(C)c1cccc(OC(F)=Cc2cccc(OC)c2)c1 [Compound 80] | 100

Same assay, conditions: Rice Blast; concentration 50 ppm

Row | SMILES | RCV (Fungicidal Activities, C.V.) [%]
43 | CNC(=O)C(=NOC)c1ccccc1CON=C(C)c1cccc(OC(F)=Cc2cccc(OC)c2)c1 [Compound 80] | 100
